In US6407104B1, “Pyrrolo[1,2-a]pyrazine spla2 inhibitor” (Shionogi & Co., Ltd., priority 1998, dated 2002):
Counter-ions that a name gives are not always drawn.

Experiments:
[1] = molecular target: T1, recombinant human secretory phospholipase A2 (Homo sapiens, UniProt P14555); test: Inhibition Test of Human Secretory Phospholipase A2 (chromogenic assay); format: biochemical; details: sPLA2 50 ng/well, 40° C., 30 minutes, OD 405 nm, 96 well microtiterplate
T1 sequence (P14555 21-144): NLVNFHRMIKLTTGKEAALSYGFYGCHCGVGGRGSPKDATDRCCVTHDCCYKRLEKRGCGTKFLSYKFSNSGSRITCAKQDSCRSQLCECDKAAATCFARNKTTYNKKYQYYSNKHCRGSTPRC
From the text: Test Example: Inhibition Test of Human Secretory Phospholipase A2
In order to identify and evaluate an inhibitor of recombinant human secretory phospholipase A2, the following chromogenic assay is utilized. The assay herein has been applied for high volume screening wherein 96 well microtiterplate is used. A general explanation for such assay is described in “Analysis of Human Synovial Fluid Phospholipase A2 on Short Chain Phosphatidylcholine-Mixed Micelles: Development of a Spectrophotometric Assay Suitable for a Micortiterplate Reader” (Analytical Biochemistry, 204, pp 190-197, 1992 by Laure. J. Reynolds. Lori L. Hughes and Edward A. Dennis: the disclosure of which is incorporated herein for reference.
pH 7.5 (adjusted with NaOH)
pH 4.5 (adjusted with acetic acid)
1 mg of sPLA2 is dissolved in 1 ml of an enzyme buffer. Thereafter, the solution is maintained at 4° C.
In the assay, 5 μl of the solution is diluted with 1995 μl of the reaction buffer to be used.
198 mg of 5,5′-dithiobis-2-[…] (manufactured by Wako Pure Chemicals) is dissolved in 100 ml of H2O
H 7.5 (adjusted with NaOH)
100 mg of racemic 1,2-bis(heptanoylthio)-1,2-dideoxy-sn-glycero-3-phospholylcholine is dissolved in 1 ml of chloroform.
624.9 mg of Triton-X 100 is dissolved in the reaction buffer.
Enzyme Reaction: for 1 Plate of Microtiterplate
1) 0.106 ml of the substrate solution is put in a centrifugal tube, and nitrogen gas is jetted to remove the solvent. 0.54 ml of Triton-X 100 is added thereto, the mixture is stirred, thereafter it is sonified in a bath type sonification to dissolve. To the resulting product are added 17.8 ml of the reaction buffer and 0.46 ml of DTNB, and 0.18 ml each of the admixture is poured to wells of the 96 well microtiterplate.
2) 10 μl of a test compound (or solvent blank) are added in accordance with alignment of plates which has been previously set.
3) Incubation is effected at 40° C. for 15 minutes.
4) 20μl of an enzyme solution (sPLA2) which has been previously diluted (50 ng/well) are added to start reaction (40° C., 30 minutes).
5) Changes in absorbancy for 30 minutes are measured by a plate reader, and inhibition activity was calculated (OD: 405 nm).
6) IC50 was determined by plotting log concentration with respect to inhibition values within 10% to 90% inhibiting range.

| SMILES | IC50 [1] [nM] | melting point [°C] |
| --- | --- | --- |
| Cc1cn2c(Cc3ccc(F)cc3)c(C)nc(OCC(=O)O)c2c1C(=O)C(N)=O [Compound I-60] | 1210 |  |
| CCc1c(C(=O)C(N)=O)c2c(OCC(=O)OC)nc(C)cn2c1Cc1ccccc1-c1ccccc1 [Compound I-21] | 41 | 164.5 to 165.5 |
| CCc1c(C(=O)C(N)=O)c2c(OCC(=O)O)nc(CC(C)C)cn2c1Cc1ccccc1 [Compound I-46] | 10 | 216 to 217 |
| CCc1c(C(=O)C(N)=O)c2c(OCC(=O)OC)nc(-c3ccccc3)cn2c1Cc1ccccc1 [Compound I-43] | 41 | 203 to 205 |
| CCc1c(C(=O)C(N)=O)c2c(OCC(=O)O)nc(C)cn2c1Cc1ccc(F)cc1 (as salt: Na) [Compound I-99] |  | 250 to 265 |
| COC(=O)COc1nc(C)cn2c(Cc3ccccc3)c(C)c(C(=O)C(N)=O)c12 [Compound I-83] | 116 | 205 to 207 |
| CCc1c(C(=O)C(N)=O)c2c(OCC(=O)OC)nc(C)cn2c1Cc1ccccc1F [Compound I-25] | 196 | 187 to 188 |
| CCc1c(C(=O)C(N)=O)c2c(OCC(=O)O)nc(-c3ccccc3)cn2c1Cc1ccccc1 [Compound I-44] | 7 | 233 to 234 |
| CCc1c(C(=O)C(N)=O)c2c(OCC(=O)O)nc(C)cn2c1Cc1ccccc1-c1ccsc1 [Compound I-102] | 20 |  |
| CCc1c(C(=O)C(N)=O)c2c(OCC(=O)O)nc(C)cn2c1Cc1ccccc1-c1cccnc1 [Compound I-66] | 45 |  |
| CCc1c(C(=O)C(N)=O)c2c(SCC(=O)O)nc(C)cn2c1Cc1ccccc1-c1ccc(F)cc1 [Compound I-58] | 25 |  |
| CCc1c(C(=O)C(N)=O)c2c(OCC(=O)O)nc(C)cn2c1Cc1ccccc1-c1cccs1 [Compound I-52, [7-Ethyl-3-methyl-8-oxamoyl-6-(2-(2-thienyl)benzyl)pyrrolo[1,2-a]pyrazin-1-yl]oxyacetic acid] | 5 |  |
| CCc1c(C(=O)C(N)=O)c2c(OCC(=O)O)nc(C)cn2c1Cc1ccc(F)cc1 [Compound I-99] | 21 |  |
| CCc1c(C(=O)C(N)=O)c2c(OCC(=O)O)nccn2c1Cc1ccccc1 [Compound I-2, [6-Benzyl-7-ethyl-8-oxamoylpyrrolo[1,2-a]pyrazin-1-yl]oxyacetic acid] | 11 |  |
| CCc1c(C(=O)C(N)=O)c2c(OCC(=O)O)nc(C)cn2c1Cc1ccccc1-c1ccsc1 (as salt: Na) [Compound I-102] |  | 260 to 263 |
| COC(=O)COc1nc(C)c(Cc2ccc(F)cc2)n2cc(C)c(C(=O)C(N)=O)c12 [Compound I-59] | 15800 |  |
| CCc1c(C(=O)C(N)=O)c2c(OCC(=O)OC)nc(C)cn2c1Cc1ccccc1-c1cccnc1 [Compound I-65] | 1550 |  |
| CCc1c(C(=O)C(N)=O)c2c(OCC(=O)O)nc(C)cn2c1Cc1ccccc1-c1cccs1 [Compound I-101] | 19 |  |
| CCc1c(C(=O)C(N)=O)c2c(OCC(=O)OCCN3CCOCC3)nc(C)cn2c1Cc1ccccc1-c1cccs1 [Compound I-97] | 78 |  |
| CCc1c(C(=O)C(N)=O)c2c(OCC(=O)OCCN3CCOCC3)nc(C)cn2c1Cc1ccccc1-c1ccc(F)cc1 [Compound I-96] | 77 |  |
| CCc1c(C(=O)C(N)=O)c2c(OCC(=O)O)nc(C)cn2c1Cc1ccccc1-c1ccc(OC)cc1 [Compound I-68] | 8 |  |
| CCc1c(C(=O)C(N)=O)c2c(OCC(=O)OC)nc(C)cn2c1Cc1ccccc1-c1ccc(OC)cc1 [Compound I-67] | 57 |  |
| CCc1c(C(=O)C(N)=O)c2c(OCC(=O)O)nc(C)cn2c1Cc1ccccc1C#Cc1ccccc1 [Compound I-54, [7-Ethyl-3-methyl-8-oxamoyl-6-(2-phenylethynylbenzyl)pyrrolo [1,2-a]pyrazin-1-yl]oxyacetic acid] | 6 |  |
| CCc1c(C(=O)C(N)=O)c2c(OCC(=O)O)nc(C)cn2c1Cc1ccccc1-c1ccc(F)cc1 [Compound I-100] | 21 |  |
| CCc1c(C(=O)C(N)=O)c2c(OCC(=O)O)nc(C)cn2c1Cc1ccc(F)cc1 [Compound I-20] |  | 204 to 205 |
